Reference: paper PMC4450297, “Screening Active Compounds from Garcinia Species Native to China Reveals Novel Compounds Targeting the STAT/JAK Signaling Pathway” (BioMed Research International, 2015)

Key:
Test in all cases: Cell panel screen (CellTiter-Glo)
Type in all cases: cell-based, human
A498 = A498 (listed under Lung), 20 micromolar, 72 hrs
Procedure, shortened: (§1)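 Single-concentration screen: 20 μM compound, 72 h, versus DMSO-only untreated cells. Viability read by CellTiter-Glo luminescence; % inhibition = (untreated − treated)/(untreated − no-cell background) × 100. Cells grown in recommended media plus 10% FBS at 37° C.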

A704 = A704 (Kidney), 20 micromolar, 72 hrs
Procedure, shortened: as §1

BT-474 = BT-474 (Breast), 20 micromolar, 72 hrs
Procedure, shortened: as §1

BT-549 = BT-549 (Breast), 20 micromolar, 72 hrs
Procedure, shortened: as §1

Bel-7402 = Bel-7402 (Liver), 20 micromolar, 72 hrs
Procedure, shortened: as §1

C3A = C3A (Liver), 20 micromolar, 72 hrs
Procedure, shortened: as §1

C8166 = C8166 (Leukemia), 20 micromolar, 72 hrs
Procedure, shortened: as §1

CCF-STTG1 = CCF-STTG1 (Brain), 20 micromolar, 72 hrs
Procedure, shortened: as §1

CW-2 = CW-2 (Colon), 20 micromolar, 72 hrs
Procedure, shortened: as §1

ChaGo-K-1 = ChaGo-K-1 (Lung), 20 micromolar, 72 hrs
Procedure, shortened: as §1

Colo 205 = settings: Colo 205, 20 micromolar, 72 hrs
Procedure, shortened: as §1

HCC1395 = HCC1395 (Breast), 20 micromolar, 72 hrs
Procedure, shortened: as §1

HCC1569 = HCC1569 (Breast), 20 micromolar, 72 hrs
Procedure, shortened: as §1

HCC1599 = HCC1599 (Breast), 20 micromolar, 72 hrs
Procedure, shortened: as §1

HCC1937 = HCC1937 (Breast), 20 micromolar, 72 hrs
Procedure, shortened: as §1

HEC-1-A = HEC-1-A (Uterus), 20 micromolar, 72 hrs
Procedure, shortened: as §1

HGC-27 = HGC-27 (Stomach), 20 micromolar, 72 hrs
Procedure, shortened: as §1

HPAF-II = HPAF-II (Pancreas), 20 micromolar, 72 hrs
Procedure, shortened: as §1

HT-1197 = HT-1197 (Urinary bladder), 20 micromolar, 72 hrs
Procedure, shortened: as §1

J82 = J82 (Urinary bladder), 20 micromolar, 72 hrs
Procedure, shortened: as §1

M059J = M059J (Brain), 20 micromolar, 72 hrs
Procedure, shortened: as §1

MSTO-211-H = MSTO-211-H (Lung), 20 micromolar, 72 hrs
Procedure, shortened: as §1

NCI-H1623 = NCI-H1623 (Lung), 20 micromolar, 72 hrs
Procedure, shortened: as §1

NCI-H1694 = NCI-H1694 (Lung), 20 micromolar, 72 hrs
Procedure, shortened: as §1

NCI-H1770 = NCI-H1770 (Lung), 20 micromolar, 72 hrs
Procedure, shortened: as §1

NCI-H2347 = NCI-H2347 (Lung), 20 micromolar, 72 hrs
Procedure, shortened: as §1

NCI-H2405 = NCI-H2405 (Lung), 20 micromolar, 72 hrs
Procedure, shortened: as §1

NCI-H28 = NCI-H28 (Lung), 20 micromolar, 72 hrs
Procedure, shortened: as §1

NCI-H524 = NCI-H524 (Lung), 20 micromolar, 72 hrs
Procedure, shortened: as §1

Panc 03.27 = Panc 03.27 (Pancreas), 20 micromolar, 72 hrs
Procedure, shortened: as §1

RL95 = RL95 (Uterus), 20 micromolar, 72 hrs
Procedure, shortened: as §1

SW13 = SW13 (Adrenal gland), 20 micromolar, 72 hrs
Procedure, shortened: as §1

T47D = T47D (Breast), 20 micromolar, 72 hrs
Procedure, shortened: as §1

T98G = T98G (Brain), 20 micromolar, 72 hrs
Procedure, shortened: as §1

TCCSUP = TCCSUP (Urinary bladder), 20 micromolar, 72 hrs
Procedure, shortened: as §1

ZR-75-30 = ZR-75-30 (Breast), 20 micromolar, 72 hrs
Procedure, shortened: as §1

SMILES | Percent Inhibition (A498) | Percent Inhibition (A704) | Percent Inhibition (BT-474) | Percent Inhibition (BT-549) | Percent Inhibition (Bel-7402) | Percent Inhibition (C3A) | Percent Inhibition (C8166) | Percent Inhibition (CCF-STTG1) | Percent Inhibition (CW-2) | Percent Inhibition (ChaGo-K-1) | Percent Inhibition (Colo 205) | Percent Inhibition (HCC1395) | Percent Inhibition (HCC1569) | Percent Inhibition (HCC1599) | Percent Inhibition (HCC1937) | Percent Inhibition (HEC-1-A) | Percent Inhibition (HGC-27) | Percent Inhibition (HPAF-II) | Percent Inhibition (HT-1197) | Percent Inhibition (J82) | further results
O=c1c2cc(O)ccc2oc2cccc(O)c12 [gl-20] | 38% | 13% | 50% | 46% | -3% | 58% | 76% | 49% | 47% | 57% | 3% | 74% | 57% | 83% | 62% | 41% | 69% | 19% | 77% | 60% | Percent Inhibition (M059J): 63%; Percent Inhibition (MSTO-211-H): 59%; Percent Inhibition (NCI-H1623): -13%; Percent Inhibition (NCI-H1694): 86%; Percent Inhibition (NCI-H1770): -4%; Percent Inhibition (NCI-H2347): 48%; Percent Inhibition (NCI-H2405): -5%; Percent Inhibition (NCI-H28): 24%; Percent Inhibition (NCI-H524): 91%; Percent Inhibition (Panc 03.27): 52%; Percent Inhibition (RL95): 67%; Percent Inhibition (SW13): 33%; Percent Inhibition (T47D): 39%; Percent Inhibition (T98G): 73%; Percent Inhibition (TCCSUP): 67%; Percent Inhibition (ZR-75-30): 87%
CC(C)=CCc1c2c(c(O)c3c1OC14C(=CC5CC1C(C)(C)OC4(CC=C(C)C(=O)O)C5=O)C3=O)C=CC(C)(C)O2 (stereo not drawn) [GB27] | 88% | 98% | 98% | 98% | 97% | 98% | 99% | 99% | 99% | 98% | 99% | 99% | 99% | 99% | 99% | 99% | 98% | 98% | 95% | 98% | Percent Inhibition (M059J): 99%; Percent Inhibition (MSTO-211-H): 99%; Percent Inhibition (NCI-H1623): 98%; Percent Inhibition (NCI-H1694): 99%; Percent Inhibition (NCI-H1770): 99%; Percent Inhibition (NCI-H2347): 93%; Percent Inhibition (NCI-H2405): 98%; Percent Inhibition (NCI-H28): 90%; Percent Inhibition (NCI-H524): 99%; Percent Inhibition (Panc 03.27): 97%; Percent Inhibition (RL95): 98%; Percent Inhibition (SW13): 99%; Percent Inhibition (T47D): 99%; Percent Inhibition (T98G): 99%; Percent Inhibition (TCCSUP): 99%; Percent Inhibition (ZR-75-30): 99%
CC(C)=CCc1c(O)cc(O)c2c1O[C@]13C(=C[C@@H]4C[C@H]1C(C)(C)O[C@@]3(CC=C(C)C)C4=O)C2=O [GB35] | 93% | 99% | 99% | 100% | 99% | 98% | 99% | 100% | 100% | 99% | 100% | 100% | 100% | 100% | 100% | 100% | 100% | 100% | 96% | 99% | Percent Inhibition (M059J): 100%; Percent Inhibition (MSTO-211-H): 99%; Percent Inhibition (NCI-H1623): 100%; Percent Inhibition (NCI-H1694): 100%; Percent Inhibition (NCI-H1770): 100%; Percent Inhibition (NCI-H2347): 97%; Percent Inhibition (NCI-H2405): 99%; Percent Inhibition (NCI-H28): 93%; Percent Inhibition (NCI-H524): 100%; Percent Inhibition (Panc 03.27): 99%; Percent Inhibition (RL95): 100%; Percent Inhibition (SW13): 100%; Percent Inhibition (T47D): 100%; Percent Inhibition (T98G): 100%; Percent Inhibition (TCCSUP): 100%; Percent Inhibition (ZR-75-30): 100%
